# pIC50: −log10 of the molar value.
# Molecular target: T1, HIV-integrase (Human immunodeficiency virus type 1 group M subtype B, UniProt P12497)
# T1 construct: Recombinant integrase (0.26 ng) was incubated with the beads
# Experiment: HIV-Integrase Inhibition Activity (SPA bead strand-transfer assay)
# Format: biochemical
# Settings: Table 1; read-out: Activity (HIV-integrase inhibition, IC50 class)
# Summary of the method: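 Strand-transfer read-out: CPM from P33-labelled target DNA (0.1 fmol) joined to bead-bound biotin substrate DNA (5 pmole), with EDTA stop at 10 mM final. Integrase (0.26 ng) prebound to streptavidin SPA beads 90 min, 37° C, and washed before adding inhibitor.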
row,Compound,pIC50
1,CC1(C)OCCn2c1nc(C(=O)NCc1ccccc1-c1ccc(CN)cc1)c(O)c2=O [Example 169],7.00 to 8.70
2,"CN(C)C(=O)c1ccc(-c2ccccc2CNC(=O)c2nc3n(c(=O)c2O)CCOC3(C)C)cc1 [Example 170, Pyrimido[2,1-c][1,4]oxazine-2-carboxamide, N-[[4′-[(dimethylamino)carbonyl][1,1′-biphenyl]-2-yl]methyl]-4,6,7,9-tetrahydro-3-hydroxy-9,9-dimethyl-4-oxo-]",7.00 to 8.70
3,CN(C)C(=O)c1cccc(-c2ccccc2CNC(=O)c2nc3n(c(=O)c2O)CCOC3(C)C)c1 [Example 171],7.00 to 8.70
4,"CC1(C)OCCn2c1nc(C(=O)NCc1ccccc1-c1cccc(C(=O)N3CCCC3)c1)c(O)c2=O [Example 172, Pyrimido[2,1-c][1,4]oxazine-2-carboxamide, 4,6,7,9-tetrahydro-3-hydroxy-9,9-dimethyl-4-oxo-N-[[3′-(1-pyrrolidinylcarbonyl)[1,1′-biphenyl]-2-yl]methyl]-]",7.00 to 8.70
5,"CC1(C)OCCn2c1nc(C(=O)NCc1ccccc1-c1ccc(C(N)=O)cc1)c(O)c2=O [Example 173, Pyrimido[2,1-c][1,4]oxazine-2-carboxamide, N-[[4′-(aminocarbonyl)[1,1′-biphenyl]-2-yl]methyl]-4,6,7,9-tetrahydro-3-hydroxy-9,9-dimethyl-4-oxo-]",7.00 to 8.70
6,"CC1(C)OCCn2c1nc(C(=O)NCc1ccccc1-c1cccc(C(N)=O)c1)c(O)c2=O [Example 174, Pyrimido[2,1-c][1,4]oxazine-2-carboxamide, N-[[3′-(aminocarbonyl)[1,1′-biphenyl]-2-yl]methyl]-4,6,7,9-tetrahydro-3-hydroxy-9,9-dimethyl-4-oxo-]",7.00 to 8.70
7,"CNC(=O)c1ccc(-c2ccccc2CNC(=O)c2nc3n(c(=O)c2O)CCOC3(C)C)cc1 [Example 175, Pyrimido[2,1-c][1,4]oxazine-2-carboxamide, 4,6,7,9-tetrahydro-3-hydroxy-9,9-dimethyl-N-[[4′-[(methylamino)carbonyl][1,1′-biphenyl]-2-yl]methyl]-4-oxo-]",7.00 to 8.70
8,"CC1(C)OCCn2c1nc(C(=O)NCc1ccccc1-c1cccc(NS(C)(=O)=O)c1)c(O)c2=O [Example 176, Pyrimido[2,1-c][1,4]oxazine-2-carboxamide, 4,6,7,9-tetrahydro-3-hydroxy-9,9-dimethyl-N-[[3′-[(methylsulfonyl)amino][1,1′-biphenyl]-2-yl]methyl]-4-oxo-]",7.00 to 8.70
9,"CC1(C)OCCn2c1nc(C(=O)NCc1ccccc1-c1ccc3[nH]ccc3c1)c(O)c2=O [Example 177, Pyrimido[2,1-c][1,4]oxazine-2-carboxamide, 4,6,7,9-tetrahydro-3-hydroxy-N-[[2-(1H-indol-5-yl)phenyl]methyl]-9,9-dimethyl-4-oxo-]",7.00 to 8.70
10,"CN(C)Cc1ccc(-c2ccccc2CNC(=O)c2nc3n(c(=O)c2O)CCOC3(C)C)cc1 [Example 178, Pyrimido[2,1-c][1,4]oxazine-2-carboxamide, N-[[4′-[(dimethylamino)methyl][1,1′-biphenyl]-2-yl]methyl]-4,6,7,9-tetrahydro-3-hydroxy-9,9-dimethyl-4-oxo-]",7.00 to 8.70
11,"CC1(C)OCCn2c1nc(C(=O)NCc1ccccc1-c1ccsc1)c(O)c2=O [Example 179, Pyrimido[2,1-c][1,4]oxazine-2-carboxamide, 4,6,7,9-tetrahydro-3-hydroxy-9,9-dimethyl-4-oxo-N-[[2-(3-thienyl)phenyl]methyl]-]",7.00 to 8.70
12,"Cc1noc(C)c1-c1ccccc1CNC(=O)c1nc2n(c(=O)c1O)CCOC2(C)C [Example 180, Pyrimido[2,1-c][1,4]oxazine-2-carboxamide, N-[[2-(3,5-dimethyl-4-isoxazolyl)phenyl]methyl]-4,6,7,9-tetrahydro-3-hydroxy-9,9-dimethyl-4-oxo-]",7.00 to 8.70
13,"COCc1ccc(-c2ccccc2CNC(=O)c2nc3n(c(=O)c2O)CCOC3(C)C)cc1 [Example 181, Pyrimido[2,1-c][1,4]oxazine-2-carboxamide, 4,6,7,9-tetrahydro-3-hydroxy-N-[[4′-(methoxymethyl)[1,1′-biphenyl]-2-yl]methyl]-9,9-dimethyl-4-oxo-]",7.00 to 8.70
14,"CC1(C)OCCn2c1nc(C(=O)NCc1ccccc1-c1ccc3c(c1)OCO3)c(O)c2=O [Example 187, Pyrimido[2,1-c][1,4]oxazine-2-carboxamide, N-[[2-(1,3-benzodioxol-5-yl)phenyl]methyl]-4,6,7,9-tetrahydro-3-hydroxy-9,9-dimethyl-4-oxo-]",7.00 to 8.70
15,"CC1(C)OCCn2c1nc(C(=O)NCc1ccccc1-c1ccc(F)c(F)c1)c(O)c2=O [Example 188, Pyrimido[2,1-c][1,4]oxazine-2-carboxamide, N-[(3′,4′-difluoro[1,1′-biphenyl]-2-yl)methyl]-4,6,7,9-tetrahydro-3-hydroxy-9,9-dimethyl-4-oxo-]",7.00 to 8.70
16,"CC1(C)OCCn2c1nc(C(=O)NCc1ccccc1-c1ccc(CC#N)cc1)c(O)c2=O [Example 189, Pyrimido[2,1-c][1,4]oxazine-2-carboxamide, N-[[4′-(cyanomethyl)[1,1′-biphenyl]-2-yl]methyl]-4,6,7,9-tetrahydro-3-hydroxy-9,9-dimethyl-4-oxo-]",7.00 to 8.70
17,"CC1(C)OCCn2c1nc(C(=O)NCc1ccccc1-c1ccncc1)c(O)c2=O [Example 190, Pyrimido[2,1-c][1,4]oxazine-2-carboxamide, 4,6,7,9-tetrahydro-3-hydroxy-9,9-dimethyl-4-oxo-N-[[2-(4-pyridinyl)phenyl]methyl]-]",7.00 to 8.70
18,"Cc1ccncc1-c1ccccc1CNC(=O)c1nc2n(c(=O)c1O)CCOC2(C)C [Example 191, Pyrimido[2,1-c][1,4]oxazine-2-carboxamide, 4,6,7,9-tetrahydro-3-hydroxy-9,9-dimethyl-N-[[2-(4-methyl-3-pyridinyl)phenyl]methyl]-4-oxo-]",7.00 to 8.70
19,"Cc1cc(-c2ccccc2CNC(=O)c2nc3n(c(=O)c2O)CCOC3(C)C)cnc1F [Example 192, Pyrimido[2,1-c][1,4]oxazine-2-carboxamide, N-[[2-(6-fluoro-5-methyl-3-pyridinyl)phenyl]methyl]-4,6,7,9-tetrahydro-3-hydroxy-9,9-dimethyl-4-oxo-]",7.00 to 8.70
20,"COc1ncc(-c2ccccc2CNC(=O)c2nc3n(c(=O)c2O)CCOC3(C)C)cc1Cl [Example 193, Pyrimido[2,1-c][1,4]oxazine-2-carboxamide, N-[[2-(5-chloro-6-methoxy-3-pyridinyl)phenyl]methyl]-4,6,7,9-tetrahydro-3-hydroxy-9,9-dimethyl-4-oxo-]",7.00 to 8.70
21,"CC1(C)OCCn2c1nc(C(=O)NCc1ccccc1-c1cnc3ccccc3c1)c(O)c2=O [Example 194, Pyrimido[2,1-c][1,4]oxazine-2-carboxamide, 4,6,7,9-tetrahydro-3-hydroxy-9,9-dimethyl-4-oxo-N-[[2-(3-quinolinyl)phenyl]methyl]-]",7.00 to 8.70
22,"CN(C)CCNC(=O)c1cccc(-c2ccccc2CNC(=O)c2nc3n(c(=O)c2O)CCOC3(C)C)c1 [Example 195, Pyrimido[2,1-c][1,4]oxazine-2-carboxamide, N-[[3′-[[[2-(dimethylamino)ethyl]amino]carbonyl][1,1′-bzphenyl]-2-yl]methyl]-4,6,7,9-tetrahydro-3-hydroxy-9,9-dimethyl-4-oxo-]",7.00 to 8.70
23,"CN1CCN(C(=O)c2ccc(-c3ccccc3CNC(=O)c3nc4n(c(=O)c3O)CCOC4(C)C)cc2)CC1 [Example 196, Pyrimido[2,1-c][1,4]oxazine-2-carboxamide, 4,6,7,9-tetrahydro-3-hydroxy-9,9-dimethyl-N-[[4′-[(4-methyl-1-piperazinyl)carbonyl][1,1′-biphenyl]-2-yl]methyl]-4-oxo-]",7.00 to 8.70
24,"CC1(C)OCCn2c1nc(C(=O)NCc1ccccc1-c1cccc3ncccc13)c(O)c2=O [Example 197, Pyrimido[2,1-c][1,4]oxazine-2-carboxamide, 4,6,7,9-tetrahydro-3-hydroxy-9,9-dimethyl-4-oxo-N-[[2-(5-quinolinyl)phenyl]methyl]-]",7.00 to 8.70
25,"CC1(C)OCCn2c1nc(C(=O)NCc1ccccc1-c1ccoc1)c(O)c2=O [Example 198, Pyrimido[2,1-c][1,4]oxazine-2-carboxamide, N-[[2-(3-furanyl)phenyl]methyl]-4,6,7,9-tetrahydro-3-hydroxy-9,9-dimethyl-4-oxo-]",7.00 to 8.70
26,"CCOc1ccc(-c2ccccc2CNC(=O)c2nc3n(c(=O)c2O)CCOC3(C)C)cn1 [Example 199, Pyrimido[2,1-c][1,4]oxazine-2-carboxamide, N-[[2-(6-ethoxy-3-pyridinyl)phenyl]methyl]-4,6,7,9-tetrahydro-3-hydroxy-9,9-dimethyl-4-oxo-]",7.00 to 8.70
27,"CC1(C)OCCn2c1nc(C(=O)NCc1ccccc1C1=CCCC1)c(O)c2=O [Example 200, Pyrimido[2,1-c][1,4]oxazine-2-carboxamide, N-[[2-(1-cyclopenten-1-yl)phenyl]methyl]-4,6,7,9-tetrahydro-3-hydroxy-9,9-dimethyl-4-oxo-]",7.00 to 8.70
28,"CC1(C)OCCn2c1nc(C(=O)NCc1cc(Br)c(F)cc1Br)c(O)c2=O [Example 201, Pyrimido[2,1-c][1,4]oxazine-2-carboxamide, N-[(4-fluoro-2,5-dibromophenyl)methyl]-4,6,7,9-tetrahydro-3-hydroxy-9,9-dimethyl-4-oxo]",7.00 to 8.70
29,"CC1(C)OCCCn2c1nc(C(=O)NCc1ccc(F)cc1S(C)(=O)=O)c(O)c2=O [Example 202, 6H-Pyrimido[2,1-c][1,4]oxazepine-2-carboxamide, N-[[4-fluoro-2-(methylsulfonyl)phenyl]methyl]-4,7,8,10-tetrahydro-3-hydroxy-10,10-dimethyl-4-oxo-]",7.00 to 8.70
30,"CCC1(CC)OCCn2c1nc(C(=O)NCc1ccc(F)cc1S(C)(=O)=O)c(O)c2=O [Example 203, Pyrimido[2,1-c][1,4]oxazine-2-carboxamide, 9,9-diethyl-N-[[4-fluoro-2-(methylsulfonyl)phenyl]methyl]-4,6,7,9-tetrahydro-3-hydroxy-4-oxo-]",7.00 to 8.70
